The assay concerns L1210 leukemia ip in BDF1 mice, survival T/C. In words: NCI In Vivo Anticancer Drug Screen. Data for tumor model L1210 Leukemia (intraperitoneal) in B6D2F1 (BDF1) mice. Conditions: endpoint: mean survival time, higher = longer survival. In a few lines:
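Transplanted-tumor mice were given test agent; controls received vehicle only. Survival readings from the two groups were divided (treated over control).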

Setting [1] is: dose: 100.0 mg/kg/injection, schedule: Q01DX009 (ip), vehicle: Klucel (hydroxypropylcellulose) (HPC).
Setting [2] is: dose: 100.0 mg/kg/injection, schedule: Q04DX003 (ip), vehicle: Klucel (hydroxypropylcellulose) (HPC).
The mark [3] stands for this setting: dose: 200.0 mg/kg/injection, schedule: Q01DX009 (ip), vehicle: Klucel (hydroxypropylcellulose) (HPC).
The mark [4] stands for this setting: dose: 200.0 mg/kg/injection, schedule: Q04DX003 (ip), vehicle: Klucel (hydroxypropylcellulose) (HPC).
Setting [5] is: dose: 400.0 mg/kg/injection, schedule: Q01DX009 (ip), vehicle: Klucel (hydroxypropylcellulose) (HPC).
Setting [6] is: dose: 400.0 mg/kg/injection, schedule: Q04DX003 (ip), vehicle: Klucel (hydroxypropylcellulose) (HPC).
Where [7] appears, read: dose: 50.0 mg/kg/injection, schedule: Q01DX009 (ip), vehicle: Klucel (hydroxypropylcellulose) (HPC).
[8] abbreviates: dose: 100.0 mg/kg/injection, schedule: Q01DX001 (ip), vehicle: saline.
Where [9] appears, read: dose: 200.0 mg/kg/injection, schedule: Q01DX001 (ip), vehicle: saline.
Where [10] appears, read: dose: 400.0 mg/kg/injection, schedule: Q01DX001 (ip), vehicle: saline.
Where [11] appears, read: dose: 100.0 mg/kg/injection, schedule: Q04DX003 (ip), vehicle: saline.
Setting [12] is: dose: 200.0 mg/kg/injection, schedule: Q04DX003 (ip), vehicle: saline.
Where [13] appears, read: dose: 400.0 mg/kg/injection, schedule: Q04DX003 (ip), vehicle: saline.

Several values for one entry are separate records, joined by “and”; a condition that tells them apart may be missing. Equal values may be shown once. Toxic doses and inconclusive results are not listed.

As for `COC(=O)c1[nH]cnc1/N=N\N(CCF)CCF`, the T/C (dose: 1.5 mg/kg/injection, schedule: Q01DX009 (ip), vehicle: carboxymethylcellulose (CMC)) was 120 % of control; the T/C (dose: 3.0 mg/kg/injection, schedule: Q01DX009 (ip), vehicle: carboxymethylcellulose (CMC)) is 110 % of control; the T/C (dose: 4.5 mg/kg/injection, schedule: Q01DX001 (ip), vehicle: carboxymethylcellulose (CMC)) was 102 % of control; the T/C (dose: 5.0 mg/kg/injection, schedule: Q01DX001 (ip), vehicle: carboxymethylcellulose (CMC)) is 101 % of control; the T/C (dose: 9.0 mg/kg/injection, schedule: Q01DX001 (ip), vehicle: carboxymethylcellulose (CMC)) is 112 % of control; the T/C (dose: 10.0 mg/kg/injection, schedule: Q01DX001 (ip), vehicle: carboxymethylcellulose (CMC)) is 115 % of control. Further, the T/C (dose: 12.0 mg/kg/injection, schedule: Q01DX009 (ip), vehicle: carboxymethylcellulose (CMC)) was 91 % of control; the T/C (dose: 14.4 mg/kg/injection, schedule: Q01DX009 (ip), vehicle: carboxymethylcellulose (CMC)) was 169 % of control; the T/C (dose: 18.0 mg/kg/injection, schedule: Q01DX009 (ip), vehicle: carboxymethylcellulose (CMC)) is 95 % of control; the T/C (dose: 40.0 mg/kg/injection, schedule: Q01DX009 (ip), vehicle: carboxymethylcellulose (CMC)) was 97 % of control; the T/C (dose: 53.0 mg/kg/injection, schedule: Q01DX001 (ip), vehicle: carboxymethylcellulose (CMC)) was 154 % of control; the T/C (dose: 80.0 mg/kg/injection, schedule: Q01DX001 (ip), vehicle: carboxymethylcellulose (CMC)) is 171 % of control.
As to `O=C(Nc1ccc(Br)cc1)Nc1cccc(Cl)c1`, the T/C is, setting by setting: (dose: 100.0 mg/kg/injection, schedule: Q04DX002 (ip), vehicle: saline) 103 % of control; (dose: 200.0 mg/kg/injection, schedule: Q04DX002 (ip), vehicle: saline) 103 % of control; (dose: 400.0 mg/kg/injection, schedule: Q04DX002 (ip), vehicle: saline) 96 % of control.
With `O=[N+]([O-])c1ccc(N2CCCC2)c([N+](=O)[O-])c1`, the T/C was 101 % of control under setting [1]; 95 % of control under setting [2]; 93 % of control under setting [3]; 92 % of control under setting [4]; 97 % of control under setting [5]; 99 % of control under setting [6].
With `COc1ccc(CNCCNCc2ccc(OC)cc2)cc1`, the T/C reads like this: under setting [7], 96 % of control; under setting [1], 100 % of control; (dose: 100.0 mg/kg/injection, schedule: Q01DX009 (ip), vehicle: water) 98 % of control; under setting [2], 103 % of control; (dose: 100.0 mg/kg/injection, schedule: Q04DX003 (ip), vehicle: water) 96 % of control; under setting [3], 96 % of control. Also, the T/C runs as follows: (dose: 200.0 mg/kg/injection, schedule: Q01DX009 (ip), vehicle: water) 92 % of control; under setting [4], 94 % of control; (dose: 200.0 mg/kg/injection, schedule: Q04DX003 (ip), vehicle: water) 100 % of control; (dose: 400.0 mg/kg/injection, schedule: Q01DX009 (ip), vehicle: water) 89 % of control; (dose: 400.0 mg/kg/injection, schedule: Q04DX003 (ip), vehicle: water) 100 % of control.
Consider `S=c1[nH]nc(Nc2ccccc2Cl)s1`, for which the T/C under setting [1] is 97 % of control, the T/C under setting [3] is 98 % of control and the T/C under setting [5] was 109 % of control.
Take `O=C(O)C(=O)Nc1ncn[nH]1`: the T/C (dose: 6.25 mg/kg/injection, schedule: Q01DX009 (ip), vehicle: Klucel (hydroxypropylcellulose) (HPC)) is 104 % of control; the T/C (dose: 12.5 mg/kg/injection, schedule: Q01DX005 (ip), vehicle: Klucel (hydroxypropylcellulose) (HPC)) was 102 % of control; the T/C (dose: 12.5 mg/kg/injection, schedule: Q01DX009 (ip), vehicle: Klucel (hydroxypropylcellulose) (HPC)) is 96 % of control and 104 % of control; the T/C (dose: 25.0 mg/kg/injection, schedule: Q01DX009 (ip), vehicle: Klucel (hydroxypropylcellulose) (HPC)) is 100 % of control and 104 % of control; the T/C (dose: 50.0 mg/kg/injection, schedule: Q01DX005 (ip), vehicle: Klucel (hydroxypropylcellulose) (HPC)) is 105 % of control and 106 % of control; the T/C under setting [7] is 107 % of control and 114 % of control. Moreover, the T/C reads like this: (dose: 100.0 mg/kg/injection, schedule: Q04DX002 (ip), vehicle: Klucel (hydroxypropylcellulose) (HPC)) 96 % of control; (dose: 200.0 mg/kg/injection, schedule: Q04DX002 (ip), vehicle: Klucel (hydroxypropylcellulose) (HPC)) 98 % of control.
Consider `CC(=O)Nc1ccc(SS(=O)(=O)c2ccc(NC(C)=O)cc2)cc1`, for which the T/C under setting [8] was 95 % of control, the T/C under setting [9] is 101 % of control and the T/C under setting [10] was 101 % of control.
For `Cc1ccc(C(=O)OCC2OC(Cl)CC2OC(=O)c2ccc(C)cc2)cc1` (stereo not given), the T/C (dose: 50.0 mg/kg/injection, schedule: Q04DX003 (ip), vehicle: saline) was 107 % of control; the T/C under setting [11] was 102 % of control; the T/C under setting [12] is 91 % of control; the T/C under setting [13] was 98 % of control.
For the compound `COc1cc2c(cc1OC)C1CC3(CC4c5cc(OC)c(OC)cc5CCN4CC3CO)C(CO)CN1CC2` (stereo not given), the T/C runs as follows: (dose: 4.0 mg/kg/injection, schedule: Q04DX003 (ip), vehicle: water) 101 % of control; (dose: 8.0 mg/kg/injection, schedule: Q04DX003 (ip), vehicle: water) 101 % of control; (dose: 16.0 mg/kg/injection, schedule: Q04DX003 (ip), vehicle: water) 110 % of control; (dose: 32.0 mg/kg/injection, schedule: Q04DX003 (ip), vehicle: water) 103 % of control; (dose: 64.0 mg/kg/injection, schedule: Q04DX003 (ip), vehicle: water) 101 % of control.
Regarding `Nc1ccc2nc[nH]c2c1`, the T/C (dose: 100.0 mg/kg/injection, schedule: Q01DX009 (ip), vehicle: saline) is 98 % of control; the T/C under setting [11] was 101 % of control; the T/C (dose: 200.0 mg/kg/injection, schedule: Q01DX009 (ip), vehicle: saline) is 95 % of control; the T/C under setting [12] was 104 % of control; the T/C (dose: 400.0 mg/kg/injection, schedule: Q01DX009 (ip), vehicle: saline) is 87 % of control; the T/C under setting [13] was 102 % of control.
For `CO/N=C(/c1ccccc1)c1cccc[n+]1C`, the T/C runs as follows: (dose: 18.8 mg/kg/injection, schedule: Q04DX003 (ip), vehicle: saline) 100 % of control; (dose: 37.5 mg/kg/injection, schedule: Q04DX003 (ip), vehicle: saline) 103 % of control.
With `O=C(Cc1cccc2ccccc12)NO`, the T/C reads like this: under setting [1], 95 % of control; under setting [2], 95 % of control; under setting [3], 102 % of control; under setting [4], 95 % of control; under setting [5], 101 % of control; under setting [6], 104 % of control.
Turning to `CCOSc1ccc([N+](=O)[O-])cc1[N+](=O)[O-]`, the T/C runs as follows: (dose: 50.0 mg/kg/injection, schedule: Q01DX001 (ip), vehicle: saline) 90 % of control; under setting [8], 93 % of control; under setting [9], 90 % of control; under setting [10], 95 % of control.
Turning to `N=c1c2ncn(Cc3cccc(C(F)(F)F)c3)c2ncn1O`, the T/C is, setting by setting: (dose: 0.78 mg/kg/injection, schedule: Q01DX009 (ip), vehicle: Klucel (hydroxypropylcellulose) (HPC)) 104 % of control; (dose: 1.56 mg/kg/injection, schedule: Q01DX009 (ip), vehicle: Klucel (hydroxypropylcellulose) (HPC)) 92 % of control; (dose: 1.56 mg/kg/injection, schedule: Q04DX003 (ip), vehicle: Klucel (hydroxypropylcellulose) (HPC)) 92 % of control; (dose: 3.12 mg/kg/injection, schedule: Q01DX009 (ip), vehicle: Klucel (hydroxypropylcellulose) (HPC)) 95 % of control; (dose: 3.12 mg/kg/injection, schedule: Q04DX003 (ip), vehicle: Klucel (hydroxypropylcellulose) (HPC)) 102 % of control.
In the case of `CN=C(NC(C=O)C(O)C(O)C(O)CO)c1ccc(NC(=O)c2ccc(C(=O)Nc3ccc(C(=NC)NC(C=O)C(O)C(O)C(O)CO)cc3)cc2)cc1` (stereo not given), the T/C is, setting by setting: (dose: 62.0 mg/kg/injection, schedule: Q01DX Z (ip), vehicle: water) 111 % of control; (dose: 125.0 mg/kg/injection, schedule: Q01DX Z (ip), vehicle: water) 115 % of control.
